# Results reported in patent US12655185B2, “Peptide inhibitors of interleukin-23 and their use to treat inflammatory diseases” (Protagonist Therapeutics, Inc., priority 2016, dated 2026).
# Bridge positions count the residues as written; N and C are the ends. Peptide text beside a SMILES is read from it.
# Biological target: T1, IL-23 binding to IL23R_huFC (human IL-23R) (Homo sapiens, UniProt P29460+Q9NPF7)
# T1 sequence (Q9NPF7 20-189): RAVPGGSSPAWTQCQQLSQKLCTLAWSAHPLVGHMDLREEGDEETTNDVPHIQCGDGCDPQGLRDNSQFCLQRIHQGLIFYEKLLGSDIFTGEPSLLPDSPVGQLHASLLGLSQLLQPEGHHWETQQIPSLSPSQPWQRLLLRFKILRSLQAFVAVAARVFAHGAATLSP
# T1 sequence (P29460 23-328): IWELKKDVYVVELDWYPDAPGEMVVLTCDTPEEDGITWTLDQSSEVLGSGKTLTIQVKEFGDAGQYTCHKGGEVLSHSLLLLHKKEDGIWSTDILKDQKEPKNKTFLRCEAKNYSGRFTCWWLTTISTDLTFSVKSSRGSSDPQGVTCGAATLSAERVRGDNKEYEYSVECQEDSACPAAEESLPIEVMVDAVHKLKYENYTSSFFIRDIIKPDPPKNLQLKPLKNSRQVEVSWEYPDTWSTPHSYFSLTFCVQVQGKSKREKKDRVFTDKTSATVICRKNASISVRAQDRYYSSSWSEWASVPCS
# Test: IL23-IL23R Competitive Binding ELISA
# Details: not given
# Protocol: Immulon® 4HBX plate was coated with 200 ng/well of IL23R_huFC and incubated overnight at 4° C. […] Serial dilutions of test peptides and IL-23 at a final concentration of 0.9 nM diluted in PBS were added to each well and incubated for 2 hours at room temperature. After the wells were washed, bound IL-23 was detected by incubation with 50 ng/well of goat anti-p40 polyclonal antibodies (R&D Systems #AF309) diluted in PBS for 1 hour at room temperature. The wells were again washed four times with PBST. […] The plate was finally washed as above. Signals were visualized with TMB One Component HRP Membrane Substrate, quenched with 2 M sulfuric acid and read spectrophotometrically at 450 nm.
row,Structure (SMILES),IC50
1,CC[C@H](C)[C@@H]1NC(=O)[C@H](CCCCN)NC(=O)[C@H](C)NC(=O)[C@H](CC(N)=O)NC(=O)[C@H](CCCNC(=N)N)NC(=O)[C@H](CCC(N)=O)NC(=O)[C@H](CCC(=O)O)NC(=O)[C@H](CCC(=O)O)NC(=O)[C@H](CC(N)=O)NC(=O)[C@H](CC(C)C)NC(=O)[C@H](CC(N)=O)NC(=O)[C@@H]2CCCN2C(=O)[C@H](CC(=O)O)NC(=O)[C@H](C)NC(=O)[C@H](C)NC(=O)[C@H](C)NC(=O)[C@H](CO)NC(=O)[C@H](Cc2ccc(O)cc2)NC(=O)[C@H](Cc2ccccc2)NC(=O)[C@H](C)NC(=O)[C@H](CC(C)C)NC(=O)[C@H](CCC(N)=O)NC(=O)[C@@H](NC(=O)[C@H](Cc2ccccc2)NC(=O)[C@H](CCSC)NC(=O)[C@H](CC(N)=O)NC(=O)[C@H](Cc2ccccc2)NC(C)=O)CSSC[C@@H](C(N)=O)NC(=O)[C@H](CC(C)C)NC(=O)[C@H](CC(=O)O)NC(=O)[C@H](CCCNC(=N)N)NC(=O)[C@H](Cc2ccccc2)NC(=O)[C@H](CO)NC(=O)[C@H](CCCCN)NC1=O [Peptide 9] (Ac-FNMFCQLAFYSAAADPNLNEEQRNAKIKSFRDLC-NH2; disulfide 5-34),10 to 100 µM

# Same assay, conditions: inhibition of IL-23/IL-23R binding; IL-23 0.9 nM; class symbols; read-out: IC50 IL23R_huFC
row,IC50,Structure (SMILES)
1,10 to 100 µM,CC[C@H](C)[C@@H]1NC(=O)[C@H](CCCNC(=N)N)NC(=O)[C@H](C)NC(=O)[C@H](CC(N)=O)NC(=O)[C@H](CCCNC(=N)N)NC(=O)[C@H](CC(=O)O)NC(=O)[C@H](CCC(=O)O)NC(=O)[C@H](CCC(=O)O)NC(=O)[C@H](CC(N)=O)NC(=O)[C@H](CC(C)C)NC(=O)[C@H](CC(N)=O)NC(=O)[C@@H]2CCCN2C(=O)[C@H](CC(N)=O)NC(=O)[C@H](C)NC(=O)[C@H](C)NC(=O)[C@H](C)NC(=O)[C@H](Cc2c[nH]c3ccccc23)NC(=O)[C@H](Cc2ccc(O)cc2)NC(=O)[C@H](Cc2ccccc2)NC(=O)[C@H](CC(C)C)NC(=O)[C@H](CCCNC(=N)N)NC(=O)[C@H](CCC(N)=O)NC(=O)[C@@H](NC(=O)[C@H](Cc2ccccc2)NC(=O)[C@H](CCSC)NC(=O)[C@H](CC(N)=O)NC(=O)[C@H](Cc2ccccc2)NC(C)=O)CSSC[C@@H](C(N)=O)NC(=O)CNC(=O)[C@H](CC(=O)O)NC(=O)[C@H](CCCNC(=N)N)NC(=O)[C@H](Cc2ccccc2)NC(=O)[C@H](CO)NC(=O)[C@H](CC(C)C)NC1=O [Peptide 3] (Ac-FNMFCQRLFYWAAANPNLNEEDRNARILSFRDGC-NH2; disulfide 5-34)
2,1 to 10 µM,CC[C@H](C)[C@@H]1NC(=O)[C@H](CCCCN)NC(=O)[C@H](C)NC(=O)[C@H](Cc2c[nH]c3ccccc23)NC(=O)[C@H](CCCNC(=N)N)NC(=O)[C@H](CCC(N)=O)NC(=O)[C@H](CCC(=O)O)NC(=O)[C@H](CCC(N)=O)NC(=O)[C@H](CC(N)=O)NC(=O)[C@H](CC(C)C)NC(=O)[C@H](CC(N)=O)NC(=O)[C@H](C)NC(=O)[C@H](CC(=O)O)NC(=O)[C@H](C(C)C)NC(=O)CNC(=O)[C@H](C)NC(=O)[C@H](CCC(=O)O)NC(=O)[C@H](CO)NC(=O)[C@H](CCSC)NC(=O)[C@H](CCCNC(=N)N)NC(=O)[C@H](CCCNC(=N)N)NC(=O)[C@H](CC(C)C)NC(=O)[C@@H](NC(=O)[C@H](CCC(N)=O)NC(=O)[C@H](CCSC)NC(=O)[C@H](CC(N)=O)NC(=O)[C@H](Cc2ccccc2)NC(C)=O)CSSC[C@@H](C(N)=O)NC(=O)[C@H](CC(=O)O)NC(=O)[C@H](CC(=O)O)NC(=O)[C@H](CCSC)NC(=O)[C@H]([C@@H](C)CC)NC(=O)[C@H](CO)NC(=O)[C@H](CCCCN)NC1=O [Peptide 16] (Ac-FNMQCLRRMSEAGVDANLNQEQRWAKIKSIMDDC-NH2; disulfide 5-34)

# More lines, now with the values behind:
row,Structure (SMILES),IC50
1,CC[C@H](C)[C@@H]1NC(=O)[C@H](CCCCN)NC(=O)[C@H](C)NC(=O)[C@H](C)NC(=O)[C@H](CCCNC(=N)N)NC(=O)[C@H](CCC(N)=O)NC(=O)[C@H](CCC(=O)O)NC(=O)[C@H](CCC(N)=O)NC(=O)[C@H](CC(N)=O)NC(=O)[C@H](CC(C)C)NC(=O)[C@H](CC(N)=O)NC(=O)[C@@H]2CCCN2C(=O)[C@H](CC(=O)O)NC(=O)[C@H](C(C)C)NC(=O)CNC(=O)[C@H](C)NC(=O)[C@H](CCC(=O)O)NC(=O)[C@H](CO)NC(=O)[C@H](CCSC)NC(=O)[C@H](CCCNC(=N)N)NC(=O)[C@H](CCCNC(=N)N)NC(=O)[C@H](CC(C)C)NC(=O)[C@@H](NC(=O)[C@H](CCC(N)=O)NC(=O)[C@H](CCSC)NC(=O)[C@H](CC(N)=O)NC(=O)[C@H](Cc2ccccc2)NC(C)=O)CSSC[C@@H](C(N)=O)NC(=O)[C@H](CC(=O)O)NC(=O)[C@H](CC(=O)O)NC(=O)[C@H](CCSC)NC(=O)[C@H]([C@@H](C)CC)NC(=O)[C@H](CO)NC(=O)[C@H](CCCCN)NC1=O [Peptide 20] (Ac-FNMQCLRRMSEAGVDPNLNQEQRAAKIKSIMDDC-NH2; disulfide 5-34),1 to 10 µM
2,CC[C@H](C)[C@@H]1NC(=O)CNC(=O)[C@H](C)NC(=O)[C@H](CCC(=O)O)NC(=O)[C@H](C(C)C)NC(=O)[C@H](CCSC)NC(=O)[C@H](CCCNC(=N)N)NC(=O)[C@H](CCCNC(=N)N)NC(=O)[C@H](CC(C)C)NC(=O)[C@@H](NC(=O)[C@H](CCC(N)=O)NC(=O)[C@H](CCSC)NC(=O)[C@H](CC(N)=O)NC(=O)[C@H](Cc2ccccc2)NC(C)=O)CSSC[C@@H](C(N)=O)NC(=O)[C@H](CC(=O)O)NC(=O)[C@H](CC(=O)O)NC(=O)[C@H](Cc2ccccc2)NC(=O)[C@H]([C@@H](C)CC)NC(=O)[C@H](CO)NC(=O)[C@H](CCCNC(=N)N)NC(=O)[C@H]([C@@H](C)CC)NC(=O)[C@H](CCCCN)NC(=O)[C@H](C)NC(=O)[C@H](Cc2c[nH]c3ccccc23)NC(=O)[C@H](CCCNC(=N)N)NC(=O)[C@H](CCC(N)=O)NC(=O)CNC(=O)[C@H](CO)NC(=O)[C@H](CC(N)=O)NC(=O)[C@H](CC(C)C)NC(=O)[C@H](CC(N)=O)NC(=O)[C@@H]2CCCN2C(=O)[C@H](CC(=O)O)NC1=O [Peptide 8] (Ac-FNMQCLRRMVEAGIDPNLNSGQRWAKIRSIFDDC-NH2; disulfide 5-34),10 to 100 µM
3,CC[C@H](C)[C@@H]1NC(=O)[C@H](CCCCN)NC(=O)[C@H](C)NC(=O)[C@H](Cc2c[nH]c3ccccc23)NC(=O)[C@H](CCCNC(=N)N)NC(=O)[C@H](CCC(N)=O)NC(=O)[C@H](CCC(=O)O)NC(=O)[C@H](CCC(N)=O)NC(=O)[C@H](CC(N)=O)NC(=O)[C@H](CC(C)C)NC(=O)[C@H](CC(N)=O)NC(=O)[C@@H]2CCCN2C(=O)[C@H](CC(=O)O)NC(=O)[C@H](C(C)C)NC(=O)CNC(=O)[C@H](C)NC(=O)[C@H](CCC(=O)O)NC(=O)[C@H](C)NC(=O)[C@H](CCSC)NC(=O)[C@H](CCCNC(=N)N)NC(=O)[C@H](CCCNC(=N)N)NC(=O)[C@H](CC(C)C)NC(=O)[C@@H](NC(=O)[C@H](CCC(N)=O)NC(=O)[C@H](CCSC)NC(=O)[C@H](CC(N)=O)NC(=O)[C@H](Cc2ccccc2)NC(C)=O)CSSC[C@@H](C(N)=O)NC(=O)[C@H](CC(=O)O)NC(=O)[C@H](CC(=O)O)NC(=O)[C@H](CCSC)NC(=O)[C@H]([C@@H](C)CC)NC(=O)[C@H](CO)NC(=O)[C@H](CCCCN)NC1=O [Peptide 13] (Ac-FNMQCLRRMAEAGVDPNLNQEQRWAKIKSIMDDC-NH2; disulfide 5-34),< 1 µM
4,CC[C@H](C)[C@@H]1NC(=O)[C@H](CCCCN)NC(=O)[C@H](C)NC(=O)[C@H](Cc2c[nH]c3ccccc23)NC(=O)[C@H](CCCNC(=N)N)NC(=O)[C@H](CCC(N)=O)NC(=O)[C@H](CCC(=O)O)NC(=O)[C@H](CCC(N)=O)NC(=O)[C@H](C)NC(=O)[C@H](CC(C)C)NC(=O)[C@H](CC(N)=O)NC(=O)[C@@H]2CCCN2C(=O)[C@H](CC(=O)O)NC(=O)[C@H](C(C)C)NC(=O)CNC(=O)[C@H](C)NC(=O)[C@H](CCC(=O)O)NC(=O)[C@H](CO)NC(=O)[C@H](CCSC)NC(=O)[C@H](CCCNC(=N)N)NC(=O)[C@H](CCCNC(=N)N)NC(=O)[C@H](CC(C)C)NC(=O)[C@@H](NC(=O)[C@H](CCC(N)=O)NC(=O)[C@H](CCSC)NC(=O)[C@H](CC(N)=O)NC(=O)[C@H](Cc2ccccc2)NC(C)=O)CSSC[C@@H](C(N)=O)NC(=O)[C@H](CC(=O)O)NC(=O)[C@H](CC(=O)O)NC(=O)[C@H](CCSC)NC(=O)[C@H]([C@@H](C)CC)NC(=O)[C@H](CO)NC(=O)[C@H](CCCCN)NC1=O [Peptide 17] (Ac-FNMQCLRRMSEAGVDPNLAQEQRWAKIKSIMDDC-NH2; disulfide 5-34),1 to 10 µM
5,CC[C@H](C)[C@@H]1NC(=O)[C@H](CCCCN)NC(=O)[C@H](C)NC(=O)[C@H](Cc2c[nH]c3ccccc23)NC(=O)[C@H](C)NC(=O)[C@H](CCC(N)=O)NC(=O)[C@H](CCC(=O)O)NC(=O)[C@H](CCC(N)=O)NC(=O)[C@H](CC(N)=O)NC(=O)[C@H](CC(C)C)NC(=O)[C@H](CC(N)=O)NC(=O)[C@@H]2CCCN2C(=O)[C@H](CC(=O)O)NC(=O)[C@H](C(C)C)NC(=O)CNC(=O)[C@H](C)NC(=O)[C@H](CCC(=O)O)NC(=O)[C@H](CO)NC(=O)[C@H](CCSC)NC(=O)[C@H](CCCNC(=N)N)NC(=O)[C@H](CCCNC(=N)N)NC(=O)[C@H](CC(C)C)NC(=O)[C@@H](NC(=O)[C@H](CCC(N)=O)NC(=O)[C@H](CCSC)NC(=O)[C@H](CC(N)=O)NC(=O)[C@H](Cc2ccccc2)NC(C)=O)CSSC[C@@H](C(N)=O)NC(=O)[C@H](CC(=O)O)NC(=O)[C@H](CC(=O)O)NC(=O)[C@H](CCSC)NC(=O)[C@H]([C@@H](C)CC)NC(=O)[C@H](CO)NC(=O)[C@H](CCCCN)NC1=O [Peptide 19] (Ac-FNMQCLRRMSEAGVDPNLNQEQAWAKIKSIMDDC-NH2; disulfide 5-34),1 to 10 µM
